Experimental data as given in ChEMBL document CHEMBL1155699, “Steroidal alkaloids from the leaves of Sarcococca coriacea of Nepalese origin” (J Nat Prod, 2001).

Columns and labels:
[1] = target: Acetylcholinesterase (Electrophorus electricus, UniProt O42275); assay: Inhibition of electric eel AChE by Ellman's method
[2] = target: Cholinesterase (Equus caballus, UniProt P81908); assay: Inhibition of horse BChE
Chain of Cholinesterase (P81908 whole entry): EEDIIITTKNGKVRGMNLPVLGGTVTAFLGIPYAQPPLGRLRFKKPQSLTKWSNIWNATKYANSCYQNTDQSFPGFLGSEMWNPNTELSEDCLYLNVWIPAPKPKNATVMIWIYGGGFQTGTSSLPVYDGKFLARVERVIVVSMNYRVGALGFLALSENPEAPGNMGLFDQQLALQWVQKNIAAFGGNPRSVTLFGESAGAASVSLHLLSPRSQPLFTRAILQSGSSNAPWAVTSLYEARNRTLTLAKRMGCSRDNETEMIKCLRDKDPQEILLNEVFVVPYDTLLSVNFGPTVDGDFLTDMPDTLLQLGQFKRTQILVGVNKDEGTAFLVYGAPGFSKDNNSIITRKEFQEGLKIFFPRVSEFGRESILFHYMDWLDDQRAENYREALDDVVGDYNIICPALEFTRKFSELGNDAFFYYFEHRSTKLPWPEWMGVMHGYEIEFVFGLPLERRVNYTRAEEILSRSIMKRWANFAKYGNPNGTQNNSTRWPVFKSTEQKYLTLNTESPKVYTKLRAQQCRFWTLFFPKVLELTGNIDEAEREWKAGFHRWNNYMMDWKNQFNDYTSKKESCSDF

Chain of Acetylcholinesterase (O42275 whole entry): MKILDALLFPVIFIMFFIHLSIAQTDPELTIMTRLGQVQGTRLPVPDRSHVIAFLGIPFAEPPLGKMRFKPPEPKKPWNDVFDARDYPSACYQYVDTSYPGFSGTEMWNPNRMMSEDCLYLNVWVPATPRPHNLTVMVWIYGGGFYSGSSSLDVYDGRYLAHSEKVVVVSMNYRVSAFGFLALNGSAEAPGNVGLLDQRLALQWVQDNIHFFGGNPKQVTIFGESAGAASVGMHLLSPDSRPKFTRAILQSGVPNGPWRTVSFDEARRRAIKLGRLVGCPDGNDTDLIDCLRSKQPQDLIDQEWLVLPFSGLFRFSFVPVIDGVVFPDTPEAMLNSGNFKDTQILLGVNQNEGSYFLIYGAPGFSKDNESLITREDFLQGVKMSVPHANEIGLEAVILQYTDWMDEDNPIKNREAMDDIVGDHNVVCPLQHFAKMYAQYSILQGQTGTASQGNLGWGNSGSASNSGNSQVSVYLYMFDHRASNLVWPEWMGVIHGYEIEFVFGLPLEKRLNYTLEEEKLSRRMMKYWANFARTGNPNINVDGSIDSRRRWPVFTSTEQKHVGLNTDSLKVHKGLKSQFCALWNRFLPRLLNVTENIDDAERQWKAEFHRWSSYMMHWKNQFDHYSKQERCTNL

Structure (SMILES): C/C=C(\C)C(=O)N[C@@H]1[C@H](OC(C)=O)[C@@H]2CC[C@@H]3[C@H](CC[C@]4(C)C([C@H](C)NC)=CC[C@@H]34)[C@@]2(C)C[C@@H]1OC(C)=O [NEPAPAKISTAMINE]
- IC50 [1]: 50.1 µM
- IC50 [2]: 25 µM

Structure (SMILES): CC(=O)O[C@H]1[C@@H](NC(=O)C=C(C)C)CC[C@]2(C)[C@H]3CC[C@]4(C)C([C@H](C)N(C)C)=CC[C@H]4[C@@H]3CC[C@@H]12 [VAGANINE D]
- IC50 [1]: 46.9 µM
- IC50 [2]: 10 µM
